Measured values from ChEMBL document CHEMBL1201862, “PubChem BioAssay data set” (2004).
Active and inactive are the calls of the source.

Assays:
[1] = microbe, parasite or virus in culture; type: functional; conditions: Mycobacterium tuberculosis
[2] = HEp-2 cell cytotoxicity, dose response, cytotoxicity control for RSV inhibitor project, HTS (AID 2410); type: functional; conditions: human respiratory syncytial virus
[3] = biological target: FAD-linked sulfhydryl oxidase ALR (Homo sapiens, UniProt P55789); assay: inhibitors of human ALR sulfhydryl oxidase, dose response, biochemical, H2O2 detection, luminescence, cherry-pick (AID 493248)
Sequence of FAD-linked sulfhydryl oxidase ALR (P55789 whole entry): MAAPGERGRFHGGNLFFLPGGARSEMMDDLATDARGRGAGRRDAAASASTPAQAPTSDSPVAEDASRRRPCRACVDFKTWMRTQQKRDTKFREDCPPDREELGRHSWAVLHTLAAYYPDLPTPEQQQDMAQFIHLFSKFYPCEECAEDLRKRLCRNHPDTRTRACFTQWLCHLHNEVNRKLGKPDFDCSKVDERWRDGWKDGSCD

Nonstructural protein 1 = Nonstructural protein 1 (Influenza A virus, UniProt Q194T2); type: functional, Influenza A virus (A/California/07/2009(H1N1))
Sequence of Nonstructural protein 1 (Q194T2 whole entry): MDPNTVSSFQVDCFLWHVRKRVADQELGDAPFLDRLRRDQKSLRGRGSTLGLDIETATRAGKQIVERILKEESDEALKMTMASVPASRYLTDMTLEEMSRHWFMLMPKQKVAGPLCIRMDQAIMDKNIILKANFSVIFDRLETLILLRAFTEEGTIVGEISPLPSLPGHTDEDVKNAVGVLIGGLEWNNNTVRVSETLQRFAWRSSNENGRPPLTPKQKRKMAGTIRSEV

[4] = Shn3 3'UTR reporter inhibitors, dose response, cell-based, Clone20 osteoblasts, firefly luciferase, cherry-picked (AID 624132); type: functional;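 note: firefly luciferase luminescence from reporter carrying the Shn3 3'UTR in osteoblasts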
[5] = HepG2 cell cytotoxicity, dose response, cytotoxicity control for Shn3 inhibitor project, CellTiter-Glo, cherry-picked (AID 624134); type: functional, cell-based
[6] = control 3'UTR Renilla luciferase suppression, dose response, counter-screen for Shn3 inhibitor project, cell-based, Clone20-Shn3RL, cherry-picked (AID 624133); type: functional
[7] = biological target: Peroxisome proliferator-activated receptor gamma/Nuclear receptor coactivator 1 (Homo sapiens, UniProt P37231); assay: TR-FRET dose response biochemical High Throughput Screening assay for agonists of the steroid receptor coactivator 1 (SRC-1) recruitment by the peroxisome proliferator-activated receptor gamma (PPAR gamma): non-selective agonists. [Related pubchem assays (depositor defined):AID1300, AID1808, AID504735, AID631]; type: protein assay
Sequence of Peroxisome proliferator-activated receptor gamma/Nuclear receptor coactivator 1 (P37231 whole entry): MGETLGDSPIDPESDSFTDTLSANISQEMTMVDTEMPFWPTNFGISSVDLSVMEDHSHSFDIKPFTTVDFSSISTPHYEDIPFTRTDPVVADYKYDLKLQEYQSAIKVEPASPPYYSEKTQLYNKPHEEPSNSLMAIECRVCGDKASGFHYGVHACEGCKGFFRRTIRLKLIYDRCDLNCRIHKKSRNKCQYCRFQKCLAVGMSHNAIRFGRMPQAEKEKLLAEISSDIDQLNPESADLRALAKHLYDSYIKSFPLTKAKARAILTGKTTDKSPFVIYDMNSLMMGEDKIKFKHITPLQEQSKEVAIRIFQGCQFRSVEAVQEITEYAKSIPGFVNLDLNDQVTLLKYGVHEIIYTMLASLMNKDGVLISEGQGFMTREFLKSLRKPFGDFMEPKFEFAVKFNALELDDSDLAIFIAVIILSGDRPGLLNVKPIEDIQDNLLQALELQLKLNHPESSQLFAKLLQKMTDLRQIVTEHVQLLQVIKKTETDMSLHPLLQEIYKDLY
Sequence of Peroxisome proliferator-activated receptor gamma/Nuclear receptor coactivator 1 (Q15788 whole entry, further chain): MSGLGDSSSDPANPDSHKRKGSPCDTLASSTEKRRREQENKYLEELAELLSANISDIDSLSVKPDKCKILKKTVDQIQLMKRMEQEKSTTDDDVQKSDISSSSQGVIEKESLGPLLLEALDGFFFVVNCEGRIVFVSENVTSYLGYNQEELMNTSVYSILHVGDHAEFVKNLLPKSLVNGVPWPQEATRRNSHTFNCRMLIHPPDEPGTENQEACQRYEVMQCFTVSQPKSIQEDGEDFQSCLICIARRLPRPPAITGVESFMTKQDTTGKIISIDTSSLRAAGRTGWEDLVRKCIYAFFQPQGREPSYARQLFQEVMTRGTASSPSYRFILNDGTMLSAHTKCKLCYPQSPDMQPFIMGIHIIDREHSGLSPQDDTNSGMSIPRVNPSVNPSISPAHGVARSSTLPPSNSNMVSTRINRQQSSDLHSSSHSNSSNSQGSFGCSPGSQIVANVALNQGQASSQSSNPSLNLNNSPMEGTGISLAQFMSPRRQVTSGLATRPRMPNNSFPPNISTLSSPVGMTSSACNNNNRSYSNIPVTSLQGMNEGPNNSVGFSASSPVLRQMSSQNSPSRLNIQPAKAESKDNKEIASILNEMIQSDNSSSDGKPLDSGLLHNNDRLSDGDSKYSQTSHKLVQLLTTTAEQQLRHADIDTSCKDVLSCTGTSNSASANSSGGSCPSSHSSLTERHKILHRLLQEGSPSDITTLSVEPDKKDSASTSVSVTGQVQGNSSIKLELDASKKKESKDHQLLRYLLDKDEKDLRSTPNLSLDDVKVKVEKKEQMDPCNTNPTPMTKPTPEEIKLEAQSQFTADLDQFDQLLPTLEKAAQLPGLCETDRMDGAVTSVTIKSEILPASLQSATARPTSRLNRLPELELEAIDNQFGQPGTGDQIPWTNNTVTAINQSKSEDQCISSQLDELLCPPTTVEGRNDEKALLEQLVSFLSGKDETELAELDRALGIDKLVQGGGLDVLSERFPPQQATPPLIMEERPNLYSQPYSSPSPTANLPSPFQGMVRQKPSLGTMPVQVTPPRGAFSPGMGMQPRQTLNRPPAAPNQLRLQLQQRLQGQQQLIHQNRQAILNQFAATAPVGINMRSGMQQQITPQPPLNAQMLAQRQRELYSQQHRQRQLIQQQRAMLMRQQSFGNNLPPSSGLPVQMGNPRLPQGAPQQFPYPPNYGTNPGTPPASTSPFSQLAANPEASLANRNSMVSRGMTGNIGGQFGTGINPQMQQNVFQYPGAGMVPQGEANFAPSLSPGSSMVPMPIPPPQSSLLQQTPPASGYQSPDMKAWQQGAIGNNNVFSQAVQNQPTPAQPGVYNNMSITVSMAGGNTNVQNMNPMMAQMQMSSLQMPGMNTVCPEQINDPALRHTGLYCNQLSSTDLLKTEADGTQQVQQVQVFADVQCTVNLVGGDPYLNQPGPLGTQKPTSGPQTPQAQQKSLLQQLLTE

[8] = biological target: Peroxisome proliferator-activated receptor gamma/Nuclear receptor coactivator 3 (Homo sapiens, UniProt P37231); assay: TR-FRET dose response biochemical High Throughput Screening assay for agonists of the steroid receptor coactivator 3 (SRC-3) recruitment by the peroxisome proliferator-activated receptor gamma (PPAR gamma): non-selective agonists. [Related pubchem assays: 1301 (Confirmation screen.), 1048 (Primary screen.)]; type: functional
Sequence of Peroxisome proliferator-activated receptor gamma/Nuclear receptor coactivator 3 (P37231 whole entry): as the sequence (P37231 whole entry) above
Sequence of Peroxisome proliferator-activated receptor gamma/Nuclear receptor coactivator 3 (Q9Y6Q9 whole entry, further chain): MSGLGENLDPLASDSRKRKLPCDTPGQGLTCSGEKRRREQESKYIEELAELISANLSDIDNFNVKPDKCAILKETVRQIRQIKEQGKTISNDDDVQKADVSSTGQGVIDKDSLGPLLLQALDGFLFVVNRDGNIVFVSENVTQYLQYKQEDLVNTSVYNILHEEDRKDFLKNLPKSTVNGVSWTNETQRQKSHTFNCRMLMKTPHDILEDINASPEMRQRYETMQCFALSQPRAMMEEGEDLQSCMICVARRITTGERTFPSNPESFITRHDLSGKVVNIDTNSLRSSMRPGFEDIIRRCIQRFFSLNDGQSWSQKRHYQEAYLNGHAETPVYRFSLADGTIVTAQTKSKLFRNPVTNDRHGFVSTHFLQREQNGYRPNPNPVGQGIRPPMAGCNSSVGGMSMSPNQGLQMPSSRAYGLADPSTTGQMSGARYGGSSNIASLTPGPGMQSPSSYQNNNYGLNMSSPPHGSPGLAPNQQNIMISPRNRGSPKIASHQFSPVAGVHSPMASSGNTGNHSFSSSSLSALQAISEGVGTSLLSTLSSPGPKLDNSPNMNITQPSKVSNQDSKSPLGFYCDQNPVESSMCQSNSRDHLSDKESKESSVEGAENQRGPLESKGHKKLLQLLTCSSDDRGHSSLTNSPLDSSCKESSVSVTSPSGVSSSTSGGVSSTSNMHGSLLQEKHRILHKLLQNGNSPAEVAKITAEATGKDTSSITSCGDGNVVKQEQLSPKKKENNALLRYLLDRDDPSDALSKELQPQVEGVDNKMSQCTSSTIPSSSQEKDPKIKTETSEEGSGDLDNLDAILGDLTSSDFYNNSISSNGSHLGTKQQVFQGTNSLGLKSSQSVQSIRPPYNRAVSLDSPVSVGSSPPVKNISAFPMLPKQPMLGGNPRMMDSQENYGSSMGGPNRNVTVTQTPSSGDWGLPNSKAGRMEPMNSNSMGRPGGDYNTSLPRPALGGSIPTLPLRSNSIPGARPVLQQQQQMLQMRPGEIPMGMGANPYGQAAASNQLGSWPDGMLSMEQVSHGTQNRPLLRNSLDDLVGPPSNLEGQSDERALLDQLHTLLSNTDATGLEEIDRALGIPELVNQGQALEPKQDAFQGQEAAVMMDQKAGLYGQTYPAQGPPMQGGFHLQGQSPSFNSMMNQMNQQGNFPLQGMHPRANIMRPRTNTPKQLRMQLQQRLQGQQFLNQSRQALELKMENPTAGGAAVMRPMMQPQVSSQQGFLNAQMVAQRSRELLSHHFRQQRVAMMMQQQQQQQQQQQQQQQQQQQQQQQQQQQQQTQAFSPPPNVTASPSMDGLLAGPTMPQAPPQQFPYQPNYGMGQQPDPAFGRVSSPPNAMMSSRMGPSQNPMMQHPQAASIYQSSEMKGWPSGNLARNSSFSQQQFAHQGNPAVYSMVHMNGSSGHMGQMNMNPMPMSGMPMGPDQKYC

[9] = biological target: Peroxisome proliferator-activated receptor gamma/Nuclear receptor coactivator 2 (Homo sapiens, UniProt P37231); assay: TR-FRET dose response biochemical High Throughput Screening assay for agonists of the steroid receptor coactivator 2 (SRC-2) recruitment by the peroxisome proliferator-activated receptor gamma (PPAR gamma): non-selective agonists. [Related pubchem assays: 1297, 1032 ]; type: functional
[10] = Luminescence Cell-Based Dose Retest to Confirm Inhibitors of Cancer Stem Cells. [Related pubchem assays (depositor defined):AID2717, AID2721]; type: functional; conditions: Homo sapiens
[11] = inhibitors of firefly luciferase expression or activity, dose response, H4 neuroglioma cells, luminescence (AID 1990); type: functional, cell-based
[12] = Luminescence Cell-Based Dose Response HTS to Identify Inhibitors of 5'UTR Stem-Loop Driven Prion Protein mRNA Translation in H4 Neuroglioblastoma Cells. [Related pubchem assays: 1827 (Project Summary), 1813 (Primary HTS)]; type: functional
[13] = inhibitors of SNCA 5'UTR-driven reporter translation, confirmation, H4 neuroglioma cells, luminescence (AID 1988); type: functional, cell-based
[14] = inhibitors of intracellular T. cruzi replication, confirmation, NIH3T3 host cells, beta-gal luminescence (AID 2044); type: functional, cell-based;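 note: intracellular parasites grown in NIH/3T3 mouse fibroblasts as host cells; luminescent beta-galactosidase reporter signal from transgenic T. cruzi replicating inside host cells; inhibitors lower the luminescence signal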
[15] = cytotoxicity toward NIH3T3 fibroblasts, dose response, counter-screen, cell-based, ATP luminescence, mouse fibroblasts (AID 2010); type: functional;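 note: cells exposed to compound for about 90 hours before reading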
[16] = Luminescence Cell-Based Dose Confirmation HTS to Identify Activators of 5'UTR Stem-Loop Driven Alpha-Synuclein mRNA Translation in H4 Neuroglioblastoma Cells. [Related pubchem assays: 1829 (Project Summary), 1814 (Primary HTS)]; type: functional
[17] = Luminescence Cell-Based Dose Response HTS to Identify Activators of Luciferase Translation or Activity in H4 […] Cells. [Related pubchem assays: 1829 (Project Summary), 1814 (Primary HTS)]; type: functional
H4 = assay: Luminescence Cell-Based Dose Response HTS to Identify Activators of 5'UTR Stem-Loop Driven Prion Protein mRNA Translation in H4 Neuroglioblastoma Cells. [Related pubchem assays: 1829 (Project Summary), 1814 (Primary HTS)]; type: functional; conditions: Homo sapiens
Protein skinhead-1 = biological target: T1, Protein skinhead-1 (Caenorhabditis elegans, UniProt P34707); type: functional
T1 sequence (P34707 whole entry): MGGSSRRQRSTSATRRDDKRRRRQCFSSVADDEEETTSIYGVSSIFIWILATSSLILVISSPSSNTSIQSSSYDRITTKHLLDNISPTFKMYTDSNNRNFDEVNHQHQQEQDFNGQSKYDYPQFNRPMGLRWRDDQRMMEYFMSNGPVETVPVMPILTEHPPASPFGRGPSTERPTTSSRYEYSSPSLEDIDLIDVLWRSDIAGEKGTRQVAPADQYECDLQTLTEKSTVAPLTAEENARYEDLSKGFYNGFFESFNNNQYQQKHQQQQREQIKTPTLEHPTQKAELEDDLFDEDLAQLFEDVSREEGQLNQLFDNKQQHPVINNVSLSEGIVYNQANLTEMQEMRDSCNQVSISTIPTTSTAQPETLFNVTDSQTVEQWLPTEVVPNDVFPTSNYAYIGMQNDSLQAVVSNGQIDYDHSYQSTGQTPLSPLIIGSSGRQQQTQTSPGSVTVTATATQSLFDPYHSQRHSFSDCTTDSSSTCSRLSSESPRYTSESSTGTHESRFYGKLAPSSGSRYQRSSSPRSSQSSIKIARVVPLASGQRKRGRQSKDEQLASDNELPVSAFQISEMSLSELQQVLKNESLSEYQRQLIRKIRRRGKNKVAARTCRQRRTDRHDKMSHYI

[18] = biological target: T2, Rac GTPase-activating protein 1 (Homo sapiens, UniProt Q9H0H5); assay: MgcRacGAP GTPase-activating activity inhibitors, confirmation, biochemical, ADP Hunter fluorescence, primary and confirmatory (AID 624330); type: functional
T2 sequence (Q9H0H5 whole entry): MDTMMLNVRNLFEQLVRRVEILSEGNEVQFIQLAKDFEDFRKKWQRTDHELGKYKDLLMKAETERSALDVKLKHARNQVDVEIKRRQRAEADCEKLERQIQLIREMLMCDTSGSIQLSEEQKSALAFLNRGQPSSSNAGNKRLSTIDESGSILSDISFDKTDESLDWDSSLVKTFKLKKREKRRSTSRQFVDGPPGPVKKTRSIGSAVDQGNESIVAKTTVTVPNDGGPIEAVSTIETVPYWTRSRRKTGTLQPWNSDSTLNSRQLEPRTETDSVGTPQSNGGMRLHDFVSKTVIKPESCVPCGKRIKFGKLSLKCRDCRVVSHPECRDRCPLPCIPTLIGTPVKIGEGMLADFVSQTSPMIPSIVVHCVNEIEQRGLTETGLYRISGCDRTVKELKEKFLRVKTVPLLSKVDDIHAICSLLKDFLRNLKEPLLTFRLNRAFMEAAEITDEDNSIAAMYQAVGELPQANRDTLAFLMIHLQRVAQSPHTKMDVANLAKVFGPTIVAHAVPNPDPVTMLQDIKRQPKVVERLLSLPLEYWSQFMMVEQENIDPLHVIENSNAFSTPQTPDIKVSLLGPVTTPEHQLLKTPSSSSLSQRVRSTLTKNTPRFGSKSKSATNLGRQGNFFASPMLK

[19] = test system: Streptococcus sp. 'group A'; assay: growth inhibition of control SK(-) GAS strain, dose response, counter-screen for streptokinase expression inhibitor project, luminescence, kanamycin, BacTiterGlo, confirmation (AID 1900); type: functional, organism-based
Streptokinase A = biological target: T3, Streptokinase A (Streptococcus pyogenes serotype M1, UniProt P10520); assay: S. pyogenes streptokinase expression inhibitors, potency, dose response, plasminogen activation absorbance, OD405 (AID 1914); type: functional, Streptococcus pyogenes M1 GAS;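 note: secreted streptokinase activity via plasminogen activation per viability signal from cell pellet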
T3 sequence (P10520 whole entry): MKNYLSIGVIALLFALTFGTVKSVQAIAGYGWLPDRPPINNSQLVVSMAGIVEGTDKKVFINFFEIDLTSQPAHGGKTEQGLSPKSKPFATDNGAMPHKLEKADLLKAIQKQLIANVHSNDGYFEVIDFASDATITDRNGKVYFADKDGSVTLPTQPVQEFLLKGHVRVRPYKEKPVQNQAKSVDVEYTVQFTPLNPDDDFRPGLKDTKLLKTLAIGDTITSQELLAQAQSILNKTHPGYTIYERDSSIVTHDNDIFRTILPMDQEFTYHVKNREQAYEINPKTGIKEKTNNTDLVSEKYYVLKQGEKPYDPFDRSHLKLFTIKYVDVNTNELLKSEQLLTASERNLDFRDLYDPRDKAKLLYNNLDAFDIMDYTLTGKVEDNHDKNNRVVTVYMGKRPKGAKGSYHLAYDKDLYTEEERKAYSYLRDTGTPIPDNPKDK

Streptococcus = assay: Group A Streptococcus viability loss, dose response, counter-screen for streptokinase expression inhibitor project, luminescence, BacTiterGlo (AID 1915); type: functional, organism-based;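 note: potency for reduction of bacterial viability or growth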

SMILES: CCNc1nc(Nc2ccc(C)c(Cl)c2)c2cnn(C)c2n1
- CC50 [1]: > 40 µM (active)

SMILES: OCCCn1c(C2CCCN2c2nc(-c3ccc(F)cc3)cs2)nc2cc(C(F)(F)F)ccc21 (configuration not stated)
- CC50 [2]: 16.8 µM (active)

SMILES: Cc1cc(C)c2c(-n3cccc3)c(C(=O)NNS(=O)(=O)c3ccc(Br)cc3)sc2n1
- CC50 [2]: 19 µM (active)
- AC50 [3]: 74.4 µM (active)

SMILES: COc1ccccc1C(=O)Nc1ccc(S(=O)(=O)N2CCc3ccccc32)cc1
- CC50 [2]: 48.7 µM (active)

SMILES: O=S(=O)(c1ccccc1)N1CCC(c2nc(O)c3nnn(Cc4cccc(Cl)c4)c3n2)CC1
- CC50 [2]: 22.3 µM (active)

SMILES: Oc1cc(Nc2cccnc2)cc2cccnc12
- IC50 (Nonstructural protein 1): 8.89 µM (active)
- AC50 [4]: 2.12 µM (active)
- AC50 [5]: 38.8 µM (active)
- AC50 [6]: 4.72 µM (active)

SMILES: CCn1c(=O)cc(SCC(=O)N(C)Cc2ccccc2)c2ccccc21
- EC50 [7]: > 79.4 µM (inactive)
- EC50 [8]: > 79.4 µM (not active)
- EC50 [9]: > 79.4 µM (not active)

SMILES: COc1ccc2sc(-c3ccc(SC)cc3)c(C#CC(C)(C)O)c2c1
- AC50 [10]: 2.26 µM (active)

SMILES: CSc1nc(Sc2ccccc2Cl)c2ccccc2n1
- EC50 [7]: > 79.4 µM (inactive)
- EC50 [8]: > 79.4 µM (not active)
- EC50 [9]: > 79.4 µM (not active)

SMILES: Cc1cccc(CN2C(=O)/C(=C\c3ccc(C(=O)NCCCN4CCN(C)CC4)cc3)Oc3ccccc32)c1
- EC50 [11]: 10.6 µM (active)
- EC50 [12]: > 120 µM (not active)
- EC50 [13]: > 120 µM (not active)
- AC50 [10]: 3.6 µM (active)

SMILES: CCc1ccc(Nc2c([N+](=O)[O-])nn(-c3ccccc3)[n+]2[O-])cc1
- EC50 [14]: 0.461 µM (active)
- EC50 [15]: > 60 µM (not active)
- IC50 (Nonstructural protein 1): 81.8 µM (active)

SMILES: Cc1cccc(/C=C/C(=O)c2ccc(NC3=NCCCS3)cc2)c1
- EC50 [16]: 23.3 µM (active)
- EC50 [17]: 9.88 µM (active)
- EC50 (H4): > 120 µM (not active)
- EC50 [14]: 2.23 µM (active)
- EC50 [15]: > 60 µM (not active)
- IC50 (Protein skinhead-1): 19.9 µM (active)

SMILES: COc1ccc(N=Nc2cnc(C)nc2-c2ccccc2)cc1
- IC50 (Nonstructural protein 1): 43.8 µM (active)

SMILES: COc1ccc(OC)c(-c2csc(NC(=O)Cc3ccccc3OC)n2)c1
- CC50 [2]: 25.3 µM (active)

SMILES: Cc1ccc(CNC(=O)CSc2c3c(nc4cc(Cl)ccc24)CCCC3)o1
- EC50 [7]: > 79.4 µM (inactive)
- EC50 [8]: > 79.4 µM (not active)
- EC50 [9]: > 79.4 µM (not active)

SMILES: COc1cccc2[nH]c3c(N4CCc5ccccc5C4)ncnc3c12
- CC50 [2]: > 50 µM (active)

SMILES: CCOC(=O)c1sc(-c2ccc(OC)cc2)cc1NC(C)=O
- EC50 [7]: > 79.4 µM (inactive)
- EC50 [8]: > 79.4 µM (not active)
- EC50 [9]: 22 µM (not active)

SMILES: CN1CCN(C(=O)CSc2cc(=O)n(C)c3ccccc23)CC1
- EC50 [7]: > 79.4 µM (inactive)
- EC50 [8]: > 79.4 µM (not active)
- EC50 [9]: > 79.4 µM (not active)

SMILES: COc1ccc(-c2csc(NCCc3nc4cc(Cl)c(Cl)cc4n3CCCO)n2)cc1
- CC50 [2]: 19.6 µM (active)

SMILES: CCN(CC(=O)NC1CCCCC1)S(=O)(=O)c1ccc(Cl)cc1
- AC50 [10]: > 195 µM (inactive)

SMILES: CCCOc1ccc(/C=N/Nc2ccccc2[N+](=O)[O-])c(OCCC)c1
- IC50 (Nonstructural protein 1): 7.73 µM (active)

SMILES: Cc1ccc(Cl)cc1-c1ccc(/C=N/c2ccc(N3CCOCC3)cc2)o1
- EC50 [7]: 27.9 µM (inactive)
- EC50 [8]: > 79.4 µM (not active)
- EC50 [9]: 19.4 µM (not active)
- IC50 [18]: 11.2 µM (active)

SMILES: Cc1ccc(-c2nn(-c3ccccc3)cc2/C=N/NC(=O)CSc2nnc(C)n2-c2ccccc2)cc1
- EC50 [16]: 13.4 µM (active)
- EC50 [17]: 63.4 µM (active)
- EC50 [19]: 7.47 µM (active)
- EC50 (H4): 16.6 µM (active)
- EC50 (Streptokinase A): 65.8 µM (active)
- EC50 (Streptococcus): 33.5 µM (active)

SMILES: C/C(=N\OC(=O)c1ccc(F)cc1)c1sc(-c2ccccc2)nc1C
- CC50 [2]: > 50 µM (active)

SMILES: O=C(O)CN(CC(=O)O)CC(=O)O [NITRILOTRIACETIC ACID]
- IC50 (Nonstructural protein 1): 17.7 µM (active)
